Experiments:
Type in all cases: in vivo
[1] = test system: Diabrotica Balteata (Corn Root Worm); experiment: Example B1: Diabrotica balteata (corn root worm), maize sprouts sprayed, L2 larvae; settings: 96 h, application rate of 200 ppm, 4 days after infestation, L2 larvae, read-out: control in at least one of the two categories (mortality or growth inhibition)
Summary of the method: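 Maize sprouts on agar were sprayed with aqueous test solutions made from 10′000 ppm DMSO stocks, dried, then infested with 6 to 10 L2 larvae per well. Mortality and growth inhibition were scored against untreated samples 4 days after infestation.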

[2] = test system: Euschistus heros (Neotropical Brown Stink Bug); experiment: Example B2: Euschistus heros (neotropical brown stink bug), soybean leaves sprayed, N2 nymphs; settings: 120 h, application rate of 200 ppm, 5 days after infestation, N2 nymphs, read-out: control in at least one of the two categories (mortality or growth inhibition)
Procedure: Soybean leaves on agar in 24-well microtiter plates were sprayed with aqueous test solutions prepared from 10′000 ppm DMSO stock solutions. After drying the leaves were infested with N2 nymphs. The samples were assessed for mortality and growth inhibition in comparison to untreated samples 5 days after infestation.

[3] = test system: Chilo suppressalis (Striped Rice Stemborer); experiment: Example B3: Chilo suppressalis (striped rice stemborer), artificial diet, L2 larvae; settings: 144 h, application rate of 200 ppm, 6 days after infestation, L2 larvae, read-out: control in at least one of the three categories (mortality, anti-feedant effect, or growth inhibition)
Summary of the method: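 Diet-incorporation surface assay: aqueous dilutions of 10'000 ppm DMSO stock applied to artificial diet, dried; 6-8 L2 larvae/well; read day 6 post-infestation for mortality, antifeedant effect, growth inhibition vs untreated. Active if any category above untreated.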

[4] = test system: Plutella xylostella (Diamond Back Moth); experiment: Example B4: Plutella xylostella (diamond back moth), artificial diet, eggs, 24-well; settings: 192 h, application rate of 200 ppm, 8 days after infestation, eggs, read-out: control in at least one of the two categories (mortality or growth inhibition)
Procedure: 24-well microtiter plates with artificial diet were treated with aqueous test solutions prepared from 10′000 ppm DMSO stock solutions by pipetting. After drying, Plutella eggs were pipetted through a plastic stencil onto a gel blotting paper and the plate was closed with it. The samples were assessed for mortality and growth inhibition in comparison to untreated samples 8 days after infestation.

[5] = test system: Myzus persicae (Green Peach Aphid); experiment: Example B5: Myzus persicae (green peach aphid) feeding/contact activity, sunflower leaf discs; settings: foliar, 144 h, application rate of 200 ppm, 6 days after infestation
Procedure: Sunflower leaf discs were placed onto agar in a 24-well microtiter plate and sprayed with aqueous test solutions prepared from 10′000 ppm DMSO stock solutions. After drying, the leaf discs were infested with an aphid population of mixed ages. The samples were assessed for mortality 6 days after infestation.

[6] = test system: Myzus persicae (Green Peach Aphid); experiment: Example B6: Myzus persicae (green peach aphid) intrinsic activity, sucrose solution; settings: 120 h, test rate of 12 ppm, 5 days after infestation, intrinsic activity, read-out: mortality
Summary of the method: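 Compounds from 10′000 ppm DMSO stocks were mixed into sucrose solution in 24-well plates sealed with Parafilm. Aphid-infested pea seedlings were set on the membrane and the plate inverted so aphids fed through it. Mortality scored 5 days after infestation.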

[7] = test system: Spodoptera littoralis (Egyptian Cotton Leaf Worm); experiment: Example B7: Spodoptera littoralis (Egyptian cotton leaf worm), cotton leaf discs sprayed, L1 larvae; settings: foliar, 72 h, application rate of 200 ppm, 3 days after infestation, L1 larvae, read-out: control in at least one of the three categories (mortality, anti-feedant effect, or growth inhibition)
Summary of the method: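 Leaf discs on agar; spray, aqueous dilution of 10′000 ppm DMSO stock; dry; 5 L1 larvae/disc. Read at 3 d post-infestation: mortality, antifeedant, growth inhibition vs untreated. Control = ≥1 category above untreated.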

CCN(c1ncnc2c(C(F)(F)F)cc(Cl)cc12)[C@@H](C)c1ncnn1-c1ccc(C#N)cn1 [P.128, 6-[5-[(1S)-1-[[6-chloro-8-(trifluoromethyl)quinazolin-4-yl]-ethyl-amino]ethyl]-1,2,4-triazol-1-yl]pyridine-3-carbonitrile]
≥ 80%: percent control (mortality or growth inhibition) at 200 ppm [1] | percent control (mortality or growth inhibition) at 200 ppm [2] | percent control (mortality, anti-feedant effect or growth inhibition) at 200 ppm [3] | percent control (mortality or growth inhibition) at 200 ppm [4] | mortality at 200 ppm [5] | mortality at 12 ppm [6] | percent control (mortality, anti-feedant effect or growth inhibition) at 200 ppm [7]

CCN(c1ncnc2c(C(F)(F)F)cc(C(F)(F)F)cc12)[C@@H](C)c1ncnn1-c1ccc(C#N)cn1 [P.168, 6-[5-[(1S)-1-[[6,8-bis(trifluoromethyl)quina-zolin-4-yl]-ethyl-amino]ethyl]-1,2,4-triazol-1-yl]pyridine-3-carbonitrile]
≥ 80%: percent control (mortality or growth inhibition) at 200 ppm [1] | percent control (mortality or growth inhibition) at 200 ppm [2] | percent control (mortality, anti-feedant effect or growth inhibition) at 200 ppm [3] | percent control (mortality or growth inhibition) at 200 ppm [4] | mortality at 200 ppm [5] | mortality at 12 ppm [6] | percent control (mortality, anti-feedant effect or growth inhibition) at 200 ppm [7]

CC(c1ncnn1-c1ncccn1)N(C)c1ncnc2c(Br)cc(Cl)cc12 (stereo not shown) [P.172, 8-bromo-6-chloro-N-methyl-N-[1-(2-pyrimidin-2-yl-1,2,4-triazol-3-yl)ethyl]quinazolin-4-amine]
≥ 80%: percent control (mortality or growth inhibition) at 200 ppm [1] | percent control (mortality or growth inhibition) at 200 ppm [2] | percent control (mortality, anti-feedant effect or growth inhibition) at 200 ppm [3] | percent control (mortality or growth inhibition) at 200 ppm [4] | mortality at 200 ppm [5] | mortality at 12 ppm [6] | percent control (mortality, anti-feedant effect or growth inhibition) at 200 ppm [7]

C[C@@H](c1ncnn1-c1ncccn1)N(C)c1ncnc2c(C(F)(F)C3CC3)cc(C(F)(F)F)cc12 [P.201, 8-[cyclopropyl(difluoro)meth-yl]-N-methyl-N-[(1S)-1-(2-pyrimidin-2-yl-1,2,4-triazol-3-yl)ethyl]-6-(trifluoromethyl)quinazolin-4-amine]
≥ 80%: percent control (mortality or growth inhibition) at 200 ppm [1] | percent control (mortality or growth inhibition) at 200 ppm [2] | percent control (mortality, anti-feedant effect or growth inhibition) at 200 ppm [3] | percent control (mortality or growth inhibition) at 200 ppm [4] | mortality at 200 ppm [5] | mortality at 12 ppm [6] | percent control (mortality, anti-feedant effect or growth inhibition) at 200 ppm [7]

C[C@H](c1ncnn1-c1ccc(C#N)cn1)N(C)c1ncnc2c(C(F)(F)F)cc(Br)cc12 [P.203, 6-[5-[(1R)-1-[[6-bromo-8-(trifluoromethyl)quinazolin-4-yl]-methyl-amino]ethyl]-1,2,4-triazol-1-yl]pyridine-3-carbonitrile]
≥ 80%: percent control (mortality or growth inhibition) at 200 ppm [1] | percent control (mortality or growth inhibition) at 200 ppm [2] | percent control (mortality, anti-feedant effect or growth inhibition) at 200 ppm [3] | percent control (mortality or growth inhibition) at 200 ppm [4] | mortality at 200 ppm [5] | mortality at 12 ppm [6] | percent control (mortality, anti-feedant effect or growth inhibition) at 200 ppm [7]

C[C@@H](c1ncnn1-c1ccc(C#N)cn1)N(C)c1ncnc2c(SC(F)(F)F)cc(C(F)(F)F)cc12 [P.215, 6-[5-[(1S)-1-[methyl-[6-(trifluoromethyl)-8-(trifluoromethylsulfanyl)quinazolin-4-yl]amino]ethyl]-1,2,4-triazol-1-yl]pyridine-3-carbonitrile]
≥ 80%: percent control (mortality or growth inhibition) at 200 ppm [1] | percent control (mortality or growth inhibition) at 200 ppm [2] | percent control (mortality, anti-feedant effect or growth inhibition) at 200 ppm [3] | percent control (mortality or growth inhibition) at 200 ppm [4] | mortality at 200 ppm [5] | mortality at 12 ppm [6] | percent control (mortality, anti-feedant effect or growth inhibition) at 200 ppm [7]

C[C@@H](c1ncnn1-c1ncccn1)N(C)c1ncnc2c(I)cc(C(F)(F)F)cc12 [P.219, 8-iodo-N-methyl-N-[(1S)-1-(2-pyrimidin-2-yl-1,2,4-triazol-3-yl)ethyl]-6-(trifluoromethyl)quinazolin-4-amine]
≥ 80%: percent control (mortality or growth inhibition) at 200 ppm [1] | percent control (mortality or growth inhibition) at 200 ppm [2] | percent control (mortality, anti-feedant effect or growth inhibition) at 200 ppm [3] | percent control (mortality or growth inhibition) at 200 ppm [4] | mortality at 200 ppm [5] | mortality at 12 ppm [6] | percent control (mortality, anti-feedant effect or growth inhibition) at 200 ppm [7]

CC(c1ncnn1-c1ccc(C#N)cn1)N(C)c1ncnc2c(C(F)(F)F)cc(OC(F)(F)F)cc12 (stereo not shown) [P.221, 6-[5-[1-[methyl-[6-(trifluoromethoxy)-8-(trifluoromethyl)quinazolin-4-yl]amino]ethyl]-1,2,4-triazol-1-yl]pyridine-3-carbonitrile]
≥ 80%: percent control (mortality or growth inhibition) at 200 ppm [1] | percent control (mortality or growth inhibition) at 200 ppm [2] | percent control (mortality, anti-feedant effect or growth inhibition) at 200 ppm [3] | percent control (mortality or growth inhibition) at 200 ppm [4] | mortality at 200 ppm [5] | mortality at 12 ppm [6] | percent control (mortality, anti-feedant effect or growth inhibition) at 200 ppm [7]

C[C@@H](c1ncnn1-c1ccc(C#N)cn1)N(C)c1ncnc2c(C(=O)C3CC3)cc(C(F)(F)F)cc12 [P.227, 6-[5-[(1S)-1-[[8-(cyclopropanecarbonyl)-6-(trifluoromethyl)quinazolin-4-yl]-methyl-amino]ethyl]-1,2,4-triazol-1-yl]pyridine-3-carbonitrile]
≥ 80%: percent control (mortality or growth inhibition) at 200 ppm [1] | percent control (mortality or growth inhibition) at 200 ppm [2] | percent control (mortality, anti-feedant effect or growth inhibition) at 200 ppm [3] | percent control (mortality or growth inhibition) at 200 ppm [4] | mortality at 200 ppm [5] | mortality at 12 ppm [6] | percent control (mortality, anti-feedant effect or growth inhibition) at 200 ppm [7]

C[C@@H](c1ncnn1-c1ccc(C#N)cn1)N(C)c1ncnc2c(I)cc(C(F)(F)F)cc12 [P.228, 6-[5-[(1S)-1-[[8-iodo-6-(trifluoromethyl)quinazolin-4-yl]-methyl-amino]ethyl]-1,2,4-triazol-1-yl]pyridine-3-carbonitrile]
≥ 80%: percent control (mortality or growth inhibition) at 200 ppm [1] | percent control (mortality or growth inhibition) at 200 ppm [2] | percent control (mortality, anti-feedant effect or growth inhibition) at 200 ppm [3] | percent control (mortality or growth inhibition) at 200 ppm [4] | mortality at 200 ppm [5] | mortality at 12 ppm [6] | percent control (mortality, anti-feedant effect or growth inhibition) at 200 ppm [7]

CC(c1ncnn1-c1ncccn1)N(C)c1ncnc2c(OC(F)F)cc(Br)cc12 (stereo not shown) [P.245, 6-bromo-8-(difluoromethoxy)-N-methyl-N-[1-(2-pyrimidin-2-yl-1,2,4-triazol-3-yl)ethyl]quinazolin-4-amine]
≥ 80%: percent control (mortality or growth inhibition) at 200 ppm [1] | percent control (mortality or growth inhibition) at 200 ppm [2] | percent control (mortality, anti-feedant effect or growth inhibition) at 200 ppm [3] | percent control (mortality or growth inhibition) at 200 ppm [4] | mortality at 200 ppm [5] | mortality at 12 ppm [6] | percent control (mortality, anti-feedant effect or growth inhibition) at 200 ppm [7]

CC(Nc1ncnc2c(OC(F)(F)F)cc(Br)cc12)c1ncnn1-c1ncccn1 (stereo not shown) [P.248, 6-bromo-N-[1-(2-pyrimidin-2-yl-1,2,4-triazol-3-yl)ethyl]-8-(trifluoromethoxy)quina-zolin-4-amine]
≥ 80%: percent control (mortality or growth inhibition) at 200 ppm [1] | percent control (mortality or growth inhibition) at 200 ppm [2] | percent control (mortality, anti-feedant effect or growth inhibition) at 200 ppm [3] | percent control (mortality or growth inhibition) at 200 ppm [4] | mortality at 200 ppm [5] | mortality at 12 ppm [6] | percent control (mortality, anti-feedant effect or growth inhibition) at 200 ppm [7]

C[C@@H](c1ncnn1-c1ccc(C#N)cn1)N(CC1CC1)c1ncnc2c(C(F)(F)F)cc(Cl)cc12 [P.264, 6-[5-[(1S)-1-[[6-chloro-8-(trifluoromethyl)quinazolin-4-yl]-(cyclopropylmethyl)amino]ethyl]-1,2,4-triazol-1-yl]pyridine-3-carbonitrile]
≥ 80%: percent control (mortality or growth inhibition) at 200 ppm [1] | percent control (mortality or growth inhibition) at 200 ppm [2] | percent control (mortality, anti-feedant effect or growth inhibition) at 200 ppm [3] | percent control (mortality or growth inhibition) at 200 ppm [4] | mortality at 200 ppm [5] | mortality at 12 ppm [6] | percent control (mortality, anti-feedant effect or growth inhibition) at 200 ppm [7]

— US20230002359A1, “PESTICIDALLY ACTIVE FUSED BICYCLIC HETEROAROMATIC COMPOUNDS” (priority 2019, published 2023)
